Laboratory results as given in publication PMC9090415, “Discovery of small molecule inhibitors of Plasmodium falciparum apicoplast DNA polymerase” (Journal of Enzyme Inhibition and Medicinal Chemistry, 2022).

Target: P. falciparum apicoplast DNA polymerase (Pf-apPOL) (Plasmodium falciparum, UniProt Q8ILY1)
Assay: Fluorescence-based high-throughput DNA polymerase assay (molecular beacon), primary screen and dose-response
Format: biochemical
Details: for DNA Pol: 90 min, 10 µM; for IC50: supplemental file 2, sheet IC50 nontoxic compounds, Pf-apPOL
Protocol: The HT assay employs a molecular beacon, a stem-loop DNA template with a Cy3 dye and the Black Hole Quencher on the 3′ and 5′ ends of the DNA, respectively. Pf-apPOL concentration is based on a calculated absorptivity of ε280 = 56750 M^−1 cm^−1. Reactions were carried out at 25 °C, using Corning 3575 […] (well-volume, 20 µL). Assays testing for compound inhibition composed of reaction buffer (pH 7.9 in 50 mM potassium acetate, 20 mM Tris-acetate and 10 mM magnesium acetate), Pf-apPOL (20 nM), DNA substrate (20 nM), dNTPs (6 µM), and compound (10 µM in DMSO). The DNA and nucleotide substrates (dNTPs) were at concentrations of 20 nM and 6 µM, respectively, in the assay. Pf-apPOL was incubated in the reaction buffer with dNTPs and the compound of interest (10 µM, in the assay) at 25 °C for 10 min. The DNA substrate was then added and the reaction was allowed to proceed for 90 min at 25 °C.
Each assay plate contained 16 negative controls (no Pf-apPOL, DMSO present) and 16 positive controls (Pf-apPOL present, no DMSO). The fluorescence of each well was determined using a BioTek Synergy Neo fluorescence plate reader using excitation and emission wavelengths of 555 and 570 nm, respectively.
In the above, Min is the average of fluorescence emission of the negative controls (substrate only), Max the average fluorescence emission from the positive controls (enzyme + substrate), and Test the emission from the assays in the presence of compounds (enzyme + compound + substrates). […] […] The IC50 of each compound was determined using Equation (2): (2) IC50= Vmax/(1+ (I/IC50)^n)
In the above, n measures cooperativity, with n > 1 indicating synergistic binding of more than a single molecule of the compound.
To identify apPOL inhibitors we utilised our previously developed high-throughput DNA polymerase assay. The HT assay is based on a molecular beacon DNA template that forms a stem-loop with a Cy3 dye and the Black Hole Quencher on the 3′ and 5′ ends of the DNA, respectively. DNA polymerase activity extends an annealed primer through the stem region, displacing the fluorophore from the quencher, thereby increasing its fluorescence (Figure 1(A)). The assay accurately recapitulates the kinetic behaviour of apPOL, as measured through more conventional low-throughput gel-based assays. The Z′ factor for the assay described here was 0.9 across all plates (data not shown).
Figure 1. High-throughput screening. (A) The fluorescent-based DNA polymerase assay used to screen the compound libraries. The DNA template strand is a hairpin loop with a primer annealed to the loop. The 3’ end of the primer is 11 bases away from the 6 bp duplex. Strand displacement activity of the DNA polymerase separates the Cy3 dye from the Black hole quencher leading to an increase in fluorescent signal. (B) The high-throughput assay workflow. The DNA polymerase is incubated with […] compound for 10 min prior to addition of the hairpin substrate. The reaction is quenched at 3 different time points and the fluorescent signal is measured and % inhibition is determined using the provided equation.

P. falciparum apicoplast DNA polymerase (Pf-apPOL), sequence (Q8ILY1 entry or part of it): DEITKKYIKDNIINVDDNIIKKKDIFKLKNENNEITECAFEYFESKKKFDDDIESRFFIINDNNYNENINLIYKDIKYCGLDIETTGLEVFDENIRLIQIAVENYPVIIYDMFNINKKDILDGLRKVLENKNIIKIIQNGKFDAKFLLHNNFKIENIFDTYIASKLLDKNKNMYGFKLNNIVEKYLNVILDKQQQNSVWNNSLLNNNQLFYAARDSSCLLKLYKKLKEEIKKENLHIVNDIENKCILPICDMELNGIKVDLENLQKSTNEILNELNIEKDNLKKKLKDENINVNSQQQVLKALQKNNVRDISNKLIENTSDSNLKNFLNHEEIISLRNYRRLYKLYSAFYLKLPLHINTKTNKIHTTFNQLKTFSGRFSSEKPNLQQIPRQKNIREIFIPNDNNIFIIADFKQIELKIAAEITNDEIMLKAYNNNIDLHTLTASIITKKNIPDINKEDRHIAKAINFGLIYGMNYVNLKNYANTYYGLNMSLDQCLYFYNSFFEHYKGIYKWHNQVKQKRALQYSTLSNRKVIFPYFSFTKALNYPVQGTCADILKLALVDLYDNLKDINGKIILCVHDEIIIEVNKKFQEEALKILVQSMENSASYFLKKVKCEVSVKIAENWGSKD

Question: Which results are given for `O=C(O)c1cccc(N2N=C(C(F)(F)F)/C(=C/c3ccc(-c4ccccc4[N+](=O)[O-])o3)C2=O)c1` [Molecule 100, O=C1N(N=C(/C/1=C/c1ccc(o1)c1ccccc1N(=O)=O)C(F)(F)F)c1cccc(c1)C(=O)O]?
Answer: % inhibition Apo pol 10' (DRC-1, concentration 2.5): 26.1484%; % inhibition Apo pol 10' (DRC-1, concentration 5): 12.0969%; % inhibition Apo pol 10' (DRC-1, concentration 10): 67.0777%; % inhibition Apo pol 10' (DRC-1, concentration 20): 85.2952%; % inhibition Apo pol 10' (DRC-1, concentration 40): 91.4411%; % inhibition Apo pol 10' (DRC-1, concentration 80): 91.0692%; % inhibition Apol 90' (DRC-1, concentration 2.5): 19.5679%; % inhibition Apol 90' (DRC-1, concentration 5): 4.613%; % inhibition Apol 90' (DRC-1, concentration 10): 58.3032%; % inhibition Apol 90' (DRC-1, concentration 20): 83.4364%; % inhibition Apol 90' (DRC-1, concentration 40): 89.1977%; % inhibition Apol 90' (DRC-1, concentration 80): 89.0036%; % inhibition apPOL 180' (DRC-1, concentration 2.5): 13.4923%; % inhibition apPOL 180' (DRC-1, concentration 5): 1.454%; % inhibition apPOL 180' (DRC-1, concentration 10): 45.1585%; % inhibition apPOL 180' (DRC-1, concentration 20): 77.5112%; % inhibition apPOL 180' (DRC-1, concentration 40): 84.5547%; % inhibition apPOL 180' (DRC-1, concentration 80): 85.8771%; % inhibition Apo pol 5' (DRC-2, concentration 2.5): 20%; % inhibition Apo pol 5' (DRC-2, concentration 5): 27%; % inhibition Apo pol 5' (DRC-2, concentration 10): 47%; % inhibition Apo pol 5' (DRC-2, concentration 20): 55%; % inhibition Apo pol 5' (DRC-2, concentration 40): 63%; % inhibition Apo pol 5' (DRC-2, concentration 80): 64%; % inhibition Apol 40' (DRC-2, concentration 2.5): 23%; % inhibition Apol 40' (DRC-2, concentration 5): 30%; % inhibition Apol 40' (DRC-2, concentration 10): 51%; % inhibition Apol 40' (DRC-2, concentration 20): 65%; % inhibition Apol 40' (DRC-2, concentration 40): 76%; % inhibition Apol 40' (DRC-2, concentration 80): 78%; % inhibition ApPOL 90' (DRC-2, concentration 2.5): 21%; % inhibition ApPOL 90' (DRC-2, concentration 5): 29%; % inhibition ApPOL 90' (DRC-2, concentration 10): 51%; % inhibition ApPOL 90' (DRC-2, concentration 20): 65%; % inhibition ApPOL 90' (DRC-2, concentration 40): 77%; % inhibition ApPOL 90' (DRC-2, concentration 80): 81%; % inhibition apPOL 180' (DRC-2, concentration 2.5): 14%; % inhibition apPOL 180' (DRC-2, concentration 5): 20%; % inhibition apPOL 180' (DRC-2, concentration 10): 43%; % inhibition apPOL 180' (DRC-2, concentration 20): 60%; % inhibition apPOL 180' (DRC-2, concentration 40): 77%; % inhibition apPOL 180' (DRC-2, concentration 80): 84%; % inhibition Apo pol 5' (conc. 2.5, DRC-2): 20%; % inhibition apPOL 180' (conc. 5, DRC-2): 20%; % inhibition Apol 40' (conc. 10, DRC-2): 51%; % inhibition ApPOL 90' (conc. 10, DRC-2): 51%; % inhibition Apol 40' (conc. 20, DRC-2): 65%; % inhibition ApPOL 90' (conc. 20, DRC-2): 65%; % inhibition ApPOL 90' (conc. 40, DRC-2): 77%; % inhibition apPOL 180' (conc. 40, DRC-2): 77%; DNA Pol (primary screen value by plate and well): 55; DNA Pol (primary screen value of the 186 hits, unit not given): 55

Question: Which IC50 does the source give for `CCCCc1ccc(NC(=O)CSc2nc(O)c(C#N)c(C3CCCCC3)n2)c(C)c1` [Molecule 8] here?
Answer: Its IC50 is 8.77 µM.

Question: For `Cc1cc2[nH]c(C(=O)Nc3ccc(F)cc3)c(CN3CCOCC3)c2s1` [Molecule 60], which IC50 is on record?
Answer: Its IC50 is 21.6 µM.

Question: `N#CC(C#N)=C1SCN(c2cccc(Cl)c2)CS1` [Molecule 29, N#CC(=C1SCN(CS1)c1cccc(c1)Cl)C#N] was tested. Which “DNA Pol” value ('DNA Pol' of the 186 hits list (screen value)) did it give?
Answer: The value was 95.

Question: What about the “% inhibition Apo pol 10'” value (DRC-1, conc 2.5) of the same molecule?
Answer: The value was 21.8228%.

Question: And the “% inhibition Apo pol 10'” value (DRC-1, conc 5)?
Answer: The value was 35.73%.

Question: What about the “% inhibition Apo pol 10'” value (DRC-1, conc 10) of the same molecule?
Answer: The value was 36.478%.

Question: What about the “% inhibition Apo pol 10'” value (DRC-1, conc 20) of the same molecule?
Answer: The value was 90.158%.

Question: And the “% inhibition Apo pol 10'” value (DRC-1, conc 40)?
Answer: The value was 91.3949%.

Question: And the “% inhibition Apo pol 10'” value (DRC-1, conc 80)?
Answer: The value was 94.8229%.

Question: And the “% inhibition Apol 90'” value (DRC-1, conc 2.5)?
Answer: Its value is 12.5059%.

Question: And the “% inhibition Apol 90'” value (DRC-1, conc 5)?
Answer: Its value is 27.1845%.

Question: What about the “% inhibition Apol 90'” value (DRC-1, conc 10) of the same molecule?
Answer: Its value is 28.2977%.

Question: What about the “% inhibition Apol 90'” value (DRC-1, conc 20) of the same molecule?
Answer: Its value is 85.5173%.

Question: And the “% inhibition Apol 90'” value (DRC-1, conc 40)?
Answer: The value was 87.9667%.

Question: And the “% inhibition Apol 90'” value (DRC-1, conc 80)?
Answer: The value was 95.5447%.

Question: What about the “% inhibition apPOL 180'” value (DRC-1, conc 2.5) of the same molecule?
Answer: The value was 2.521%.

Question: What about the “% inhibition apPOL 180'” value (DRC-1, conc 5) of the same molecule?
Answer: Its value is 13.8215%.

Question: And the “% inhibition apPOL 180'” value (DRC-1, conc 10)?
Answer: Its value is 15.4746%.

Question: And the “% inhibition apPOL 180'” value (DRC-1, conc 20)?
Answer: The value was 81.5285%.

Question: What about the “% inhibition apPOL 180'” value (DRC-1, conc 40) of the same molecule?
Answer: The value was 85.2905%.

Question: And the “% inhibition apPOL 180'” value (DRC-1, conc 80)?
Answer: Its value is 94.962%.

Question: What about the “% inhibition Apo pol 5'” value (DRC-2, conc 2.5) of the same molecule?
Answer: Its value is 14%.

Question: And the “% inhibition Apo pol 5'” value (DRC-2, conc 5)?
Answer: Its value is 34%.

Question: What about the “% inhibition Apo pol 5'” value (DRC-2, conc 10) of the same molecule?
Answer: The value was 45%.

Question: And the “% inhibition Apo pol 5'” value (DRC-2, conc 20)?
Answer: Its value is 55%.

Question: What about the “% inhibition Apo pol 5'” value (DRC-2, conc 40) of the same molecule?
Answer: Its value is 60%.

Question: And the “% inhibition Apo pol 5'” value (DRC-2, conc 80)?
Answer: The value was 60%.

Question: And the “% inhibition Apo pol 5'” value (DRC-2, concentration 40)?
Answer: Its value is 60%.

Question: What about the “% inhibition Apo pol 5'” value (DRC-2, concentration 80) of the same molecule?
Answer: The value was 60%.

Question: And the “% inhibition Apol 40'” value (DRC-2, conc 2.5)?
Answer: Its value is 20%.

Question: And the “% inhibition Apol 40'” value (DRC-2, conc 5)?
Answer: The value was 42%.

Question: What about the “% inhibition Apol 40'” value (DRC-2, conc 10) of the same molecule?
Answer: The value was 56%.

Question: And the “% inhibition Apol 40'” value (DRC-2, conc 20)?
Answer: The value was 65%.

Question: What about the “% inhibition Apol 40'” value (DRC-2, conc 40) of the same molecule?
Answer: Its value is 73%.

Question: What about the “% inhibition Apol 40'” value (DRC-2, conc 80) of the same molecule?
Answer: The value was 76%.

Question: And the “% inhibition Apol 40'” value (DRC-2, concentration 10)?
Answer: Its value is 56%.

Question: What about the “% inhibition Apol 40'” value (DRC-2, concentration 40) of the same molecule?
Answer: Its value is 73%.

Question: And the “% inhibition ApPOL 90'” value (DRC-2, conc 2.5)?
Answer: Its value is 17%.

Question: What about the “% inhibition ApPOL 90'” value (DRC-2, conc 5) of the same molecule?
Answer: The value was 41%.

Question: And the “% inhibition ApPOL 90'” value (DRC-2, conc 10)?
Answer: Its value is 56%.

Question: What about the “% inhibition ApPOL 90'” value (DRC-2, conc 20) of the same molecule?
Answer: Its value is 66%.

Question: And the “% inhibition ApPOL 90'” value (DRC-2, conc 40)?
Answer: The value was 75%.

Question: What about the “% inhibition ApPOL 90'” value (DRC-2, conc 80) of the same molecule?
Answer: The value was 79%.

Question: And the “% inhibition ApPOL 90'” value (DRC-2, concentration 10)?
Answer: Its value is 56%.

Question: What about the “% inhibition apPOL 180'” value (DRC-2, conc 2.5) of the same molecule?
Answer: Its value is 10%.

Question: What about the “% inhibition apPOL 180'” value (DRC-2, conc 5) of the same molecule?
Answer: Its value is 31%.

Question: And the “% inhibition apPOL 180'” value (DRC-2, conc 10)?
Answer: Its value is 48%.

Question: And the “% inhibition apPOL 180'” value (DRC-2, conc 20)?
Answer: The value was 62%.

Question: What about the “% inhibition apPOL 180'” value (DRC-2, conc 40) of the same molecule?
Answer: The value was 73%.

Question: What about the “% inhibition apPOL 180'” value (DRC-2, conc 80) of the same molecule?
Answer: Its value is 81%.

Question: And the “% inhibition apPOL 180'” value (DRC-2, concentration 40)?
Answer: Its value is 73%.

Question: And the “DNA Pol” value (primary screen value, "DNA Pol")?
Answer: The value was 95.

Question: Which IC50 does the source give for `O=C(O)C(=O)Nc1nc(-c2ccc3c(c2)OCCO3)cs1` [Molecule 82] here?
Answer: The IC50 was 40.5 µM.
